Reference: publication PMC11259170, “Small-molecule probe for IBD risk variant GPR65 I231L alters cytokine signaling networks through positive allosteric modulation” (Science Advances, 2024)
Read-outs that look alike come from different tables or passages of the source.

What was measured:
[1] = molecular target: T1, hGPR65 (Homo sapiens, UniProt Q8IYL9); assay: cAMP detection in HeLa expression cell line, hGPR65; type: cell-based; details: for Emax: HeLa, relative to 100uM forskolin (100%) and DMSO (0%), read-out: hGPR Max Activity %
T1 construct: expressed in transfected cells; host or cells: HeLa (ATCC CCL-2), lentiviral transduction, pLX317
Outline: (§1)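 Compound was dispensed from a 10 mM DMSO stock, and puromycin-selected HeLa lines carrying lentiviral V5-tagged receptor were added at 1500 cells/well in pH 7.2 stimulation buffer. After 30 min stimulation at room temperature, cells were lysed and detection ran 1 h in the dark before cAMP TR-FRET reading.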

[2] = molecular target: T2, mGPR65 (Mus musculus, UniProt Q61038); assay: cAMP detection in HeLa expression cell line, mGPR65; type: cell-based; details: for Emax: HeLa, relative to 100uM forskolin (100%) and DMSO (0%), read-out: mGPR Max Activity %
T2 construct: expressed in transfected cells; host or cells: HeLa (ATCC CCL-2), lentiviral transduction, pLX317
Outline: as §1

[3] = test system: GFP-expressing HeLa cells; assay: cAMP detection in HeLa expression cell line, GFP control; type: cell-based, human; details: Homo sapiens, HeLa, 1st GFP column pair, NA = no activity
Outline: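 TR-FRET cAMP read-out (Lance Ultra; ex 337 nm, em 620 and 665 nm) after 1 h detection in the dark, following a 30 min RT stimulation of 1500 cells per well in pH 7.2 stimulation buffer with compound supplied as 10 mM DMSO stock. Cells: lentivirally transduced HeLa lines carrying V5-tagged GPCR or GFP, kept under 3 μg/ml puromycin.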

[4] = molecular target: T3, hGPR65-SmBiT (Homo sapiens, UniProt Q8IYL9); assay: Nano-BiT target engagement, LgBiT-mGs recruitment to hGPR65-SmBiT in Expi293F cells; type: cell-based
T3 construct: expressed in transfected cells; host or cells: Expi293F (Gibco), transient transfection
Outline: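 Expi293F cells co-transfected (500 ng each plasmid) with receptor-SmBiT and LgBiT-mGs constructs, assayed 24 h later in 0.1% PBS-BSA pH 7.4 at room temperature. Luminescence from Nano-Glo Live Cell Reagent recorded in 90 s cycles, with 10 baseline cycles before compound addition.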

[5] = molecular target: T4, mGPR65-SmBiT (Mus musculus, UniProt Q61038); assay: Nano-BiT target engagement, LgBiT-mGs recruitment to mGPR65-SmBiT; type: cell-based; details: 10 μM
T4 construct: expressed in transfected cells; host or cells: Expi293F (Gibco), transient transfection
Method: Target engagement was measured in Expi293F (Gibco, 100044202) cells using the Nano-Glo Live Cell Assay System (Promega, N2011). Nano-BiT plasmids were cloned from GPR65-, GPR4-, and GPR68-Tango plasmids. GPR65-Tango (Addgene plasmid # 66370; http://n2t.net/addgene:66370; RRID:Addgene_66370), GPR4-Tango (Addgene plasmid # 66358; http://n2t.net/addgene:66358; RRID:Addgene_66358), and GPR68-Tango (Addgene plasmid # 66371; http://n2t.net/addgene:66371; RRID:Addgene_66371) were gifts from Bryan Roth. Expi293F cells were transfected 1 day before kinetics with 500 ng of each plasmid using ExpiFectamine 293 Transfection Kit (Gibco, A14525). After 24 hours, cells were collected, washed, and resuspended in room temperature 0.1% PBS-BSA, adjusted to pH 7.4 using 1 M NaOH. Cells were transferred to white opaque 96-well microplates (100 μl per well, PerkinElmer, 6005290), followed by addition of the Nano-Glo Live Cell Reagent (25 μl per well). Baseline luminescence was measured for 10 cycles (1 cycle = 90 s) before adding compounds. All luminescence measurements were made on BMG Labtech PHERAstar FSX. Data analysis was performed using GraphPad Prism.

[6] = 1st hGPR column pair, NA = no activity
[7] = 2nd hGPR column pair, NA = no activity
[8] = 2nd mGPR column pair, NA = no activity

T2 sequence (Q61038 whole entry): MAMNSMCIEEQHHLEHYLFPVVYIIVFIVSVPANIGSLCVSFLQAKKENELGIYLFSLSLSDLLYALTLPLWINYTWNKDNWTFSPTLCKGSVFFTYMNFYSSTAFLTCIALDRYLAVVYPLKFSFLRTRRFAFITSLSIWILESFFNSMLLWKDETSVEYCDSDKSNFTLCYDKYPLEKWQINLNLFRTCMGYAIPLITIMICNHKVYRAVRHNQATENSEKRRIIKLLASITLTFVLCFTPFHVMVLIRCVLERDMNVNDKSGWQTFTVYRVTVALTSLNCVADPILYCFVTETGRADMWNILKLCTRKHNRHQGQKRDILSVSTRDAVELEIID
T4 sequence (Q61038 whole entry): as above
T3 sequence (Q8IYL9 whole entry): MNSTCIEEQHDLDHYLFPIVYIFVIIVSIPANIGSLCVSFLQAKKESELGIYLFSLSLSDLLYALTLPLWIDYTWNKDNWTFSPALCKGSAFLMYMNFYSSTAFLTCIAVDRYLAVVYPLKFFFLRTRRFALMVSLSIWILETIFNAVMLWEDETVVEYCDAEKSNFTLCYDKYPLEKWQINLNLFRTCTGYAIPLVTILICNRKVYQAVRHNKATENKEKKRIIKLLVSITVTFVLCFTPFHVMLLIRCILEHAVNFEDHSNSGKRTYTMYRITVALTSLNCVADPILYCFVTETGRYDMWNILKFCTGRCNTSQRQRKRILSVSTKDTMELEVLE
T1 sequence (Q8IYL9 whole entry): as above

CN1N=C(SCc2ccc(Cl)cc2Cl)Sc2c1cnn(C)c2=O [BTB09089, reference compound] was tested, and the EC50 ([1]; 1st hGPR column pair, NA = no activity, read-out: hGPR EC50) was 6.35 µM, the EC50 ([1]; 2nd hGPR column pair, NA = no activity, read-out: hGPR EC50) was 1.37 µM and the Emax [1, 6] was 53.5%. It also gave an Emax [1, 7] of 31.1%, an EC50 ([2]; 2nd mGPR column pair, NA = no activity, read-out: mGPR EC50) of 0.458 µM and an Emax [2, 8] of 76.4%. For the same compound, the Emax ([2]; NA = no activity) was 82.8%, the EC50 [3] was 194 nM and the Emax ([3]; relative to 100uM forskolin (100%) and DMSO (0%), read-out: GFP Max Activity %) was 1.95%. For the same compound, the “mGs recruitment / engagement of hGPR65” value ([4]; 10 μM) was “limited activity toward hGPR65” and the “mGs recruitment / engagement of mGPR65” value [5] was “increases in luminescence independent of pH changes”.
For Cc1ccc(NC(=O)c2cnn3c(O)cc(-c4ccc(COC(C)C)cc4)nc23)nc1 [BRD5075, O=C(NC1=NC=C(C)C=C1)C2=C3N(N=C2)C(O)=CC(C4=CC=C(COC(C)C)C=C4)=N3], the “mode of action from pH-dependent cAMP production” value ([1]; 0 to 50 μM, pH range of 6.6 to 7.6) was “PAMs”, the “activity for hGPR65 among prioritized molecules” value ([1]; 1.56 μM, pH 7.2) was “highest activity” and the Emax [1, 6] was 80.3%. The Emax [1, 7] was 78.6%, the EC50 ([1]; hGPR EC50 (uM), NA = no activity) was 0.377 µM and the EC50 ([1]; hGPR EC50 (uM), pH 7.2, 30 min) was 1.2 µM. The EC50 ([1]; hGPR EC50, NA = no activity) was 1.1 µM, the EC50 ([1]; hGPR EC50, pH 7.2, 30 min) was 0.699 µM and the “cAMP activity, hGPR65” value ([1]; pH 7.2) was “at least 40%”. For the same compound, the “activity for mGPR65 among prioritized molecules” value ([2]; 1.56 μM, pH 7.2) was “highest activity”, the “cAMP response against mGPR65 among prioritized compounds” value ([2]; HeLa cells) was “highest cAMP response” and the Emax [2, 8] was 69.6%. The Emax ([2]; NA = no activity) was 70.8%, the EC50 ([2]; mGPR EC50 (uM), 2nd mGPR column pair, NA = no activity) was 0.952 µM and the EC50 ([2]; mGPR EC50 (uM), first pair of columns, pH 7.2, 30 min) was 1.04 µM. The EC50 ([2]; mGPR EC50 (uM), second pair of columns, pH 7.2, 30 min) was 0.997 µM, the EC50 ([2]; mGPR EC50 (uM), NA = no activity) was 0.892 µM and the “cAMP activity, mGPR65” value ([2]; pH 7.2) was “at least 40%”. For the same compound, the “effect of concentration on mGs recruitment” value ([4]; 0-50 μM) was “dose-dependent effect”, the “mGs recruitment / engagement of hGPR65” value ([4]; 10 μM) was “showed engagement” and the “activity after HCl versus water, hGPR65” value ([4]; 10 μM, HCl or H2O at cycle 10) was “showed activity when preceded by the addition of HCl but not water”. For the same compound, the “mGs recruitment / engagement of mGPR65” value [5] was “showed engagement” and the “activity after HCl versus water, mGPR65” value ([5]; HCl or H2O at cycle 10) was “showed activity when preceded by the addition of HCl but not water”.
